Measured values from patent US20030186947A1, “Compounds having activity as inhibitors of cytochrome P450RAI” (priority 2000, published 2003).

Legend:
Test in all cases: chimeric receptor transactivation assay
Format in all cases: cell-based
Settings in all cases: value in parentheses
RARβ = biological target: T1, RARβ (Homo sapiens, UniProt P10826)
T1 sequence (P10826 183-417 limits assumed): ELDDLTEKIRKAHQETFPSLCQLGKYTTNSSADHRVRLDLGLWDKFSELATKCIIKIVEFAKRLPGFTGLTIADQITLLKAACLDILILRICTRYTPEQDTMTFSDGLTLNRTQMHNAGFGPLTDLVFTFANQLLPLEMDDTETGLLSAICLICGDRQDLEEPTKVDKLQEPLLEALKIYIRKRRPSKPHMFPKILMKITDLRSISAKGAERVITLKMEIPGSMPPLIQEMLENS
Text: (§1) Assays described below measure the ability of a compound to bind to, and/or activate various retinoid receptor subtypes. When in these assays a compound binds to a given receptor subtype and activates the transcription of a reporter gene through that subtype, then the compound is considered an agonist of that receptor subtype. […] In the below described assays the ability of the compounds to bind to RARα, RARβ, RARγ, RXRα, RXRβ and RXRγ receptors, and the ability or inability of the compounds to activate transcription of a reporter gene through these receptor subtypes can be tested.
(§2) As far as specific assays are concerned, a chimeric receptor transactivation assay which tests for agonist-like activity in the RARα, RARβ, and RARγ, receptor subtypes, and which is based on work published by Feigner P. L. and Holm M (1989) Focus, 112 is described in detail in U.S. Pat. No. 5,455,265. The specification of U.S. Pat. No. 5,455,265 is hereby expressly incorporated by reference.
A holoreceptor transactivation assay and a ligand binding assay which measure the antagonist/agonist like activity of the compounds of the invention, or their ability to bind to the several retinoid receptor subtypes, respectively, are described in published PCT Application No. WO WO93/11755 (particularly on pages 30-33 and 37-41) published on Jun. 24, 1993, the specification of which is also incorporated herein by reference. […] The results obtained in this assay are expressed in EC50 numbers, as they are also in the chimeric receptor transactivation assay. The results of ligand binding assay are expressed in Kd numbers. (See Cheng et al. Biochemical Pharmacology Vol. 22 pp 3099-3108, expressly incorporated herein by reference.)

RARγ = biological target: T2, RARγ (Homo sapiens, UniProt P13631)
T2 sequence (P13631 185-419 limits assumed): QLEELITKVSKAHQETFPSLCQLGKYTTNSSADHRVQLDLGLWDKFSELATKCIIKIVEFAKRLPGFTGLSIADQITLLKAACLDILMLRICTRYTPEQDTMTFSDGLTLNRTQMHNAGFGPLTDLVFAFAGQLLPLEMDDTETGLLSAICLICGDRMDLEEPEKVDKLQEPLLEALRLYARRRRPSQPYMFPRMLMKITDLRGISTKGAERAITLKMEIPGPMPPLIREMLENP
Text: as §1
as §2, with “reference. The numeric results obtained with several preferred compounds of this invention in this assay are shown below in Table 1.” for “reference.”
(§3) A holoreceptor transactivation assay and a ligand binding assay which measure the antagonist/agonist like activity of the compounds of the invention, or their ability to bind to the several retinoid receptor subtypes, respectively, are described in published PCT Application No. WO WO93/11755 (particularly on pages 30-33 and 37-41) published on Jun. 24, 1993, the specification of which is also incorporated herein by reference. A detailed experimental procedure for holoreceptor transactivations has been described by Heyman et al. Cell 68, 397-406, (1992); Allegretto et al. J. Biol. Chem. 268, 26625-26633, and Mangelsdorf et al. The Retinoids: Biology, Chemistry and Medicine, pp 319-349, Raven Press Ltd., New York, which are expressly incorporated herein by reference. The results obtained in this assay are expressed in EC50 numbers, as they are also in the chimeric receptor transactivation assay. The results of ligand binding assay are expressed in Kd numbers. (See Cheng et al. Biochemical Pharmacology Vol. 22 pp 3099-3108, expressly incorporated herein by reference.)

RARα = biological target: T3, RARα (Homo sapiens, UniProt P10276)
T3 sequence (P10276 183-417 limits assumed): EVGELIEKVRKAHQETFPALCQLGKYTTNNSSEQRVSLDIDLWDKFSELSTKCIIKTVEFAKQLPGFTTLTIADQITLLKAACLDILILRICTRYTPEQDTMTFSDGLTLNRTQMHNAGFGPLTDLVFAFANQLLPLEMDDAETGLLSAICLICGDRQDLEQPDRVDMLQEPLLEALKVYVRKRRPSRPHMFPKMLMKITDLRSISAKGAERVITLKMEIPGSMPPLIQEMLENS
Text: as §1
as §2, with “reference. The numeric results obtained with several preferred compounds of this invention in this assay are shown below in Table 1.” for “reference.”
as §3

| RAR (EFFICACY) β (RARβ) | RAR (EFFICACY) γ (RARγ) | RAR (EFFICACY) α (RARα) | Compound |
| --- | --- | --- | --- |
| (77) | (65) | (60) | Cc1cc(C#Cc2ccc(C(=O)O)cc2)ccc1C1(OC(C)C)CC1 [Compound 85, 4-[4-(1-Isopropoxycyclopropyl)-3-methyl-phenylethynyl]-benzoic acid] |
| (50) | (31) | (10) | COC1(c2ccc(C#Cc3ccc(C(=O)O)cc3)cc2)CC1 [Compound 69, 4-[4-(1-Methoxycyclopropyl)-phenylethynyl]-benzoic acid] |
| (39) | (55) | (114) | CCc1cc(C#Cc2ccc(C(=O)O)cc2)ccc1C1(OCc2ccccc2)CC1 [Compound 93, 4-[4-(1-Benzyloxycyclopropyl)-3-ethyl-phenylethynyl]-benzoic acid] |
| (80) | (67) | – | Cc1cc(C#Cc2ccc(C(=O)O)cc2)ccc1C1(OCc2ccccc2)CC1 [Compound 81, 4-[4-(l -Benzyloxycyclopropyl)-3-methyl-phenylethynyl]-benzoic acid] |
| (37) | – | – | O=C(O)c1ccc(C#Cc2ccc(C3(NCc4ccccc4)CC3)cc2)cc1 [Compound 112, 4-[4-(1-Benzylamino-cyclopropyl)-phenylethynyl]-benzoic acid] |
| (36) | (10) | (15) | CCCNC1(c2ccc(C#Cc3ccc(C(=O)O)cc3)cc2)CC1 [Compound 108, 4-[4-(1-Propylamino-cyclopropyl)-phenylethynyl]-benzoic acid] |
| (44) | (42) | – | CCCN(CCC)C1(c2ccc(C#Cc3ccc(C(=O)O)cc3)cc2)CC1 [Compound 110, 4-[4-(1-Dipropylamino-cyclopropyl)-phenylethynyl]-benzoic acid] |
| (50) | (46) | (20) | Cc1cc(C#Cc2ccc(C(=O)O)cc2)ccc1C1(OCC(C)(C)C)CC1 [Compound 89, 4-[4-[1-(2,2-Dimethylpropyloxy)-cyclopropyl]-3-methyl-phenylethynyl]-benzoic acid] |
| (39) | (24) | – | CC(C)OC1(c2ccc(C#Cc3ccc(C(=O)O)cc3)cc2)CC1 [Compound 73, 4-[4-(1-Isopropoxycyclopropyl)-phenylethynyl]-benzoic acid] |

Continued, compound first:

| Compound | RAR (EFFICACY) β (RARβ) | RAR (EFFICACY) γ (RARγ) | RAR (EFFICACY) α (RARα) |
| --- | --- | --- | --- |
| CN(C1CC1)C1CCC(C)(C)c2cc(C#Cc3ccc(C(=O)O)cc3)ccc21 (centres unmarked) [Compound 3, 4-[(5-Cyclopropyl-methyl-amino)-8,8-dimethyl-5,6,7,8-tetrahydro-naphthalene-2yl-ethynyl]-benzoic acid] | (54) | (52) | (28) |
| CC1(C)CCC(=O)c2ccc(C#Cc3ccc(C(=O)O)c(F)c3)cc21 [Compound 10, 2-Fluoro-4-(8,8-dimethyl-5-oxo-5,6,7,8-tetrahydro-naphthalen-2yl-ethynyl)-benzoic acid] | (86) | (94) | (146) |
| CC1(C)CCC(=O)c2ccc(C#Cc3ccc(CC(=O)O)cc3)cc21 [Compound 5, 4-[(8,8-Dimethyl-5-oxo-5,6,7,8-tetrahydro-naphthalene-2-yl-ethynyl)-phenyl]-acetic acid] | (36) | – | – |
| CC1(C)CC2(CC2)Oc2ccc(C#Cc3ccc(C(=O)O)c(F)c3)cc21 [Compound 44, 2-Fluoro-benzoic acid, 4-[(3,4-dihydro-4,4-dimethylspiro[2H-1-benzopyran-2,1′-cyclopropane]-6-yl)ethynyl]-] | (100) | (116) | (138) |
| CN(C1CC1)C1CCC(C)(C)c2cc(C#Cc3ccc(C(=O)O)c(F)c3)ccc21 (centres unmarked) [Compound 13, 4-[5-(Cyclopropyl-methyl-amino)-8,8-dimethyl-5 6,7,8-tetrahydro-naphthalene-2-yl-ethynyl]-2-fluoro benzoic acid] | (6.6) | (9) | – |
| CN(C1CC1)C1CCC(C)(C)c2cc(C#Cc3ccc(CC(=O)O)cc3)ccc21 (centres unmarked) [Compound 8, 4-[(5-(Cyclopropyl-methyl-amino)-8,8-dimethyl-5,6,7,8-tetrahydro-naphthalene-2-yl-ethynyl)-phenyl]-acetic acid] | (96) | – | – |
| CC1(C)CC2(CC2)Oc2ccc(C#Cc3ccc(C(=O)O)cc3)cc21 [Compound 40, Benzoic acid 4-[(3,4-dihydro-4,4-dimethylspiro[2H-1-benzopyran-2,1′-cyclopropane]-6-yl)ethynyl]-] | (126) | (140) | (207) |
